Data: US10208033B2, “β-carboline, dihydro-β-carboline and tetrahydro-β-carboline alkaloid derivatives and preparation methods same and use in aspects of preventing and treating plant viruses, fungicides and insecticides” (NANKAI UNIVERSITY, priority 2013, dated 2019)
Where a name gives a salt, the structure may show the parent alone.

What was measured:
[1] = tested on: Cercospora arachidicola; experiment: Fungicidal (bactericidal) activity in vitro, PDA colony diameter; assay type: cell-based
[2] = tested on: Fusarium graminearumt; experiment: microbe, parasite or virus in culture; assay type: cell-based; conditions: 50 mg/kg
[3] = tested on: potato late blight; experiment: microbe, parasite or virus in culture; assay type: cell-based
[4] = tested on: corn borers; conditions: in vivo
[5] = tested on: cucumber fusarium wilt; experiment: Fungicidal (bactericidal) activity in vitro, PDA colony diameter; assay type: cell-based
[6] = tested on: Rhizoctonia cereali; experiment: as above; assay type: cell-based
[7] = tested on: Colletotrichum orbiculare; experiment: as above; assay type: cell-based
[8] = tested on: Macrophoma kawatsukai; experiment: as above; assay type: cell-based
[9] = tested on: Sclerotinia scleotiorum; experiment: as above; assay type: cell-based
[10] = tested on: Botrytis cinerea; experiment: as above; assay type: cell-based
[11] = tested on: mosquito larvae; experiment: whole plant or invertebrate; conditions: in vivo
Method: Experimental method of mosquito larvae: culex pipiens pallens, a normal colony raised indoors. Weigh about 5 mg of the compound for test, put it in a penicillin vial, add 5 mL of acetone (or an appropriate solvent), and shake and dissolve it to obtain a 1000 ppm mother solution. Pipette 0.5 mL of the mother solution, add it to a 100 mL beaker filled with 89.9 mL of water, select 10 mosquito larvae at the beginning of the fourth instar, and pour them to a beaker together with 10 mL of feeding solution. The concentration of the drug solution is 5 ppm. […] Use an aqueous solution containing 0.5 mL of test solvent as a blank.

[12] = tested on: Bipolaria maydis; experiment: organism not typed; assay type: cell-based; conditions: 50 mg/kg
[13] = tested on: Phytophthora capsici; experiment: Fungicidal (bactericidal) activity in vitro, PDA colony diameter; assay type: cell-based
[14] = tested on: Rhizoctonia solani; experiment: as above; assay type: cell-based
[15] = tested on: Alternaria solani; experiment: as above; assay type: cell-based
[16] = tested on: armyworms; assay type: in vivo; conditions: concentration 600 mg/kg
[17] = tested on: cotton bollworms; experiment: whole plant or invertebrate; conditions: in vivo
Method: Experimental method of cotton bollworms: feed and drug mixing method: measure 3 mL of prepared solution and add it to about 27 g of newly prepared feed, thereby obtaining needed concentration through dilution by 10 times.

[18] = tested on: Fusarium fujikuroi; experiment: Fungicidal (bactericidal) activity in vitro, PDA colony diameter; assay type: cell-based
[19] = tested on: tobacco mosaic virus (TMV); experiment: Anti-TMV in vivo inactivation; set-up: species or system tobacco mosaic virus (host Nicotiana tabacum L.cv.Xanthi NN); conditions: for inhibition at 100 µg/mL / inhibition at 500 µg/mL: Tobacco mosaic virus, read-out: Relative inhibition rate (%) In vivo inactivation
[20] = tested on: tobacco mosaic virus (TMV); experiment: Anti-TMV in vivo therapeutic effect; set-up: species or system tobacco mosaic virus (host Nicotiana tabacum L.cv.Xanthi NN); conditions: for inhibition at 100 µg/mL / inhibition at 500 µg/mL: Tobacco mosaic virus, read-out: Relative inhibition rate (%) In vivo therapy
[21] = tested on: tobacco mosaic virus (TMV); experiment: Anti-TMV in vitro effect (half-leaf soaking); assay type: cell-based, tobacco mosaic virus (host Nicotiana tabacum L.cv.Xanthi NN); conditions: for inhibition at 100 µg/mL / inhibition at 500 µg/mL: Tobacco mosaic virus, read-out: Relative inhibition rate (%) In vitro activity
[22] = tested on: tobacco mosaic virus (TMV); experiment: Anti-TMV in vivo protective effect; set-up: species or system tobacco mosaic virus (host Nicotiana tabacum L.cv.Xanthi NN); conditions: for inhibition at 100 µg/mL / inhibition at 500 µg/mL: Tobacco mosaic virus, read-out: Relative inhibition rate (%) In vivo protection

## CCOC(=O)[C@@H]1Cc2c([nH]c3ccccc23)[C@H](c2cccnc2)N1 [Ib-11, (1S, 3S)-1-(pyridine-3)-2,3,4,9-tetrahydropyridino [3,4-b] indol-3-ethyl formate]
[1]
  Bactericidal activity (%) Cercospora arachidicola: 42.9%
[2]
  Bactericidal activity (%) Fusarium graminearumt: 28.6%
[3]
  Bactericidal activity (%) potato late blight: 35.0%
[4]
  Corn borer Mortality (%): 5%
[5]
  Bactericidal activity (%) Cucumber fusarium wilt: 23.8%
[6]
  Bactericidal activity (%) Rhizoctonia cereali: 65.6%
[7]
  Bactericidal activity (%) Colletotrichum orbiculare: 42.9%
[8]
  Bactericidal activity (%) Macrophoma kawatsukai: 35.3%
[9]
  Bactericidal activity (%) Sclerotinia scleotiorum: 76.0%
[10]
  Bactericidal activity (%) Botrytis cinerea: 40.9%
[11]
  Mosquito larvae Mortality (%): 15%
[12]
  Bactericidal activity (%) Bipolaria maydis: 15.8%
[13]
  Bactericidal activity (%) Phytophthora capsici: 36.4%
[14]
  Bactericidal activity (%) Rhizoctonia solani: 17.9%
[15]
  Bactericidal activity (%) Alternaria solani: 55.6%
[16]
  Armyworm Mortality (%): 5%
[17]
  Cotton bollworm Mortality (%): 20%
[18]
  Bactericidal activity (%) Fusarium fujikuroi: 28.6%

## COc1cc2c3c(c4cc(OC)c(OC)cc4c2cc1OC)CN1CCC[C@H]1C3.O=C(O)C[C@@H](O)C(=O)O [NK-007, reference compound]
[19]; treatment dose 100 μg/mL
  Relative inhibition rate (%) In vivo inactivation: 33.9%
[19]; treatment dose 500 μg/mL
  Relative inhibition rate (%) In vivo inactivation: 65.2%
[20]; treatment dose 100 μg/mL
  Relative inhibition rate (%) In vivo therapy: 34.9%
[20]; treatment dose 500 μg/mL
  Relative inhibition rate (%) In vivo therapy: 67.2%
[21]; treatment dose 100 μg/mL
  Relative inhibition rate (%) In vitro activity: 38.7%
[21]; treatment dose 500 μg/mL
  Relative inhibition rate (%) In vitro activity: 65.4%
[22]; treatment dose 100 μg/mL
  Relative inhibition rate (%) In vivo protection: 36.2%
[22]; treatment dose 500 μg/mL
  Relative inhibition rate (%) In vivo protection: 67.9%

## CNCC(=O)N[C@@H](CO)C(=O)N[C@H]1[C@H](O)[C@@H](O)[C@H](n2ccc(N)nc2=O)O[C@@H]1C(N)=O [Ningnanmycin, reference compound]
[19]; treatment dose 100 μg/mL
  inhibition at 100 µg/mL: 38.4%
[19]; treatment dose 500 μg/mL
  inhibition at 500 µg/mL: 68%
[20]; treatment dose 100 μg/mL
  inhibition at 100 µg/mL: 20%
[20]; treatment dose 500 μg/mL
  inhibition at 500 µg/mL: 54.2%
[21]; treatment dose 100 μg/mL
  inhibition at 100 µg/mL: 26.8%
[21]; treatment dose 500 μg/mL
  inhibition at 500 µg/mL: 73.3%
[22]; treatment dose 100 μg/mL
  inhibition at 100 µg/mL: 23.1%
[22]; treatment dose 500 μg/mL
  inhibition at 500 µg/mL: 65.4%

## NC(=O)c1ncn([C@@H]2O[C@H](CO)[C@@H](O)[C@H]2O)n1 [Virazole, reference compound]
[19]; treatment dose 100 μg/mL
  inhibition at 100 µg/mL: 12.9%
[19]; treatment dose 500 μg/mL
  inhibition at 500 µg/mL: 36.3%
[20]; treatment dose 100 μg/mL
  inhibition at 100 µg/mL: 11.9%
[20]; treatment dose 500 μg/mL
  inhibition at 500 µg/mL: 35.4%
[21]; treatment dose 100 μg/mL
  inhibition at 100 µg/mL: 15.3%
[21]; treatment dose 500 μg/mL
  inhibition at 500 µg/mL: 39.5%
[22]; treatment dose 100 μg/mL
  inhibition at 100 µg/mL: 16.2%
[22]; treatment dose 500 μg/mL
  inhibition at 500 µg/mL: 37.6%
